Measurements from patent US20260159486A1, “BENZO[H]QUINAZOLINE-4-AMINE DERIVATIVES FOR THE TREATMENT OF CANCER” (Redona Therapeutics, Inc., priority 2021, published 2026).

Key:
[1] = Body weight changes in SW480 xenograft study; type: in vivo, NOD/SCID mice; conditions: day-17; oral BID*BIW, 45 mg/kg days 1-10, 50 mg/kg days 11-22
Procedure: (§1) NOD/SCID mice of circa 23 g of weight were inoculated with 1×10^7 SW480 human colorectal cancer cells in 50% Matrigel™ subcutaneously in a flank. A pair match was performed when tumors reached an average volume of 100-150 mm^3 to distribute animals into treatment group and vehicle control (n=8/group). Tumor volumes (expressed in mm^3) were measured twice weekly using a caliper on days 1, 4, 8, 11, 15, 18, 22 and 23 of the treatment period. (A) The average TVol (±standard error of mean (SEM)) of each treatment group are shown. […] (B) Changes in BW in percentage (expressed in g, ±SEM) on days 1, 4, 8, 11, 15, 18, 22 and 23 of the treatment period. (C) Changes in vehicle- and Example 13-treated TVol expressed in mm^3. TVol ratio of Example 13-treated vs vehicle control (T/C) is indicated.
Female 8-9 weeks of age NOD/SCID mice of about 23 g of weight were used for the study (Jiangsu GemPharmatech Co., Ltd). Mice were inoculated subcutaneously in the flank region with 1×10^7 SW480 cells in PBS mixed with Matrigel™ (1:1) in a final injection volume of 0.2 mL/mouse. Once tumors reached an average size of 100-150 mm^3, a pair match was carried out to distribute mice to the different treatment groups. […]
(§2) Tumor volumes (expressed in mm^3) were measured in two dimensions using a caliper on days 1, 4, 8, 11, 15, 18, 22 and 23 of the treatment period. […]

MDA-MB-231 cells = experiment: MDA-MB-231 proliferation assay; type: cell-based; conditions: Homo sapiens, MDA-MB-231, 72 h, YO-PRO-1 Iodide readout
Outline: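 Cells seeded at 750 per well, treated next day for 72 h at 37 °C with 0.5% final DMSO. Cell number read by YO-PRO-1 fluorescence after lysis, normalized to DMSO (100%) and time-zero cells (0%). GI50 from 4-parameter logistic fit, maximum constrained to 100%.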

[2] = test system: SW480 human colorectal cancer cells; experiment: SW480 colorectal cancer mouse xenograft model; type: in vivo, NOD/SCID mice
Procedure: as §1
The efficacy of Example 13 was assessed in a mouse xenograft model. To this end, the SW480 colorectal cancer xenograft model was used, in which the tumor cells were injected subcutaneously into the flanks of immune-deficient NOD/SCID mice (lack functional/mature T and B cells, functional immature macrophages and residual NK cell function). […]
as §2

COCCN(C)c1c(O[C@H]2CC[C@H](N)CC2)ccc2c1CC(C)(C)c1c(N)ncnc1-2 [Example 13, 8-(trans-4-aminocyclohexoxy)-N7-(2-methoxyethyl)-N7,5,5-trimethyl-6H-benzo[h]quinazoline-4,7-diamine]
maximal body weight loss [1]: 5%
GI50 (MDA-MB-231 cells): 100 to 2000 nM
tumor volumes during the treatment period compared with vehicle-treated ([2]; oral 45 mg/kg BID*BIW, treatment period): consistently smaller
tumor volumes as % of the volume of the vehicle-treated group (T/C) ([2]; study endpoint day 23, oral BID*BIW, 45 mg/kg days 1-10, 50 mg/kg days 11-22, p=0.06): 61%
